Source: patent US20120322813A1, “RUTAECARPINE DERIVATIVES FOR TREATING CAFFEINE TOXICITY” (priority 2011, published 2012)

Test system: CYP1A2
Experiment: MEROD assay in live Hepa1c1c7 cells incubated with test compound (CYP1A2 induction)
Type: cell-based, mouse
Conditions: live Hepa1c1c7 cells incubated with 10 μM compound
From the text: FIG. 1 illustrates how caffeine is primarily metabolized to paraxanthine via CYP1A2 enzyme in a human, according to some embodiments. The MEROD (methoxyresorufin-O-demethylase) assay measures the activity of the enzyme (CYP1A2) that converts methoxyresorufin (probe substrate) to resorufin (demethylation) in the presence of NADPH. The resulting resorufin concentration can be measured using a fluorescence reader by setting the excitation and emission wavelengths at 544 and 590 nm, respectively.
For MEROD assay in live cells, Hepa1c1c7 cells were cultured in either 6-well or 24-well-plates. For the 24-well plate experiment, after confluent cells were incubated for approximately 20 hours with either resorufin, nitro-resorufin, chloro-resorufin, 3-MC or DMSO (in triplicates), culture media was removed and 180 μL fresh culture media containing […] methoxyresorufin was added per well. After 1 hour incubation at 37° C., […] aliquot was taken from each well and the formation of resorufin was measured by fluorescence. […] After 5 hours incubation at 37° C., 100 μL aliquot was taken from each well, centrifuged at 12,000 g at RT for ˜5 min and the supernatants were placed into wells of a 96-well fluorescence plate and the formation of resorufin was measured by fluorescence.

formation of resorufin (MEROD): no marked difference
Compound: O=c1c2ccc(Cl)cc2nc2n1CCc1c-2[nH]c2ccccc12 [chloro-rutaecarpine]
